This is an account of results in patent publication US7829576B2 (priority 2008, dated 2010).

pIC50: −log10 of the molar value. “Also recorded” adds a separate entry of the source.

One data set concerns noradrenaline reuptake. The note with it: synaptosomes from rat and primate brain; cited from earlier work.
Another data set deals with Male Sprague-Dawley rats. In words: Rat hot plate model of acute nociceptive pain. Type of data set: in vivo. Conditions: 30 and 60 mg/kg IP, 50° C. hot plate (FIGS. 6A, 6B). As for the experimental part:
Protocol. […] For the experiment, rats were acclimated to a 50° C. hot plate apparatus by gently placing them on the hot plate with all four paws on the surface. A timer was started and the latency (in seconds) until the rat licked any of its paws was measured. A 60 second cut-off to elicit a response was set to prevent tissue damage to the paws. After the rats elicited the paw lick response, they were removed from the apparatus and returned to their home cages for at least 30 minutes. Baseline paw lick latencies were determined prior to drug treatments in an identical manner to the acclimation test. Following drug treatments, the rats were placed on the hot plate apparatus at the appropriate time and treatment paw lick latencies were determined. All test groups contained at least six animals.

The conditions of data set [1]: cited from earlier work.
Another data set deals with human volunteers. The note with it: 25-400 mg, cited from earlier work.
For data set [2], the system named is patients hospitalized for depression. The note with it: phase IIA; cited from earlier work.
For the next data set, the target named is T1, CYP2D6 (Homo sapiens, UniProt P10635).
T1 construct: purchased BD Bioscience
In words: CYP2D6 inhibition (dextromethorphan O-demethylation) in human hepatic microsomes. The data set is classed as in vitro ADME. Conditions: pooled male human hepatic microsomes. The procedure:
The 200 μL incubations were conducted in duplicate in 0.1 M potassium phosphate buffer (pH 7.4) with 0.02 mg of microsomal protein, 3 mM MgCl2, 1 mM EDTA and 7.5 μM of the probe substrate dextromethorphan in a 96-well polypropylene plate maintained at 37° C. After a 3-minute pre-incubation, the reaction was initiated with the addition of 2 mM NADPH. Upon completion of the 10-minute incubation period, aliquots of 100 μL were removed and added to a new plate containing 100 μL of internal standard in acidified acetonitrile to stop the reaction. The quenched samples were vortexed and the precipitated protein was removed by centrifugation. Supernatant aliquots of 100 μL were transferred to LC vials and 5 μL were injected onto the HPLC system for LC/MS/MS analysis of the metabolite dextrorphan. Standards and quality control samples were similarly prepared using authentic dextrorphan standards.
Dexthorphan concentrations were determined by high performance liquid chromatography with tandem mass spectrometric detection (LC/MS/MS) after protein precipitation with acidified acetonitrile containing internal standard. Separations were performed with a Flux Rheos 2000 quaternary pump (Leap Technologies, Inc., Carrboro, N.C.) using an XTerra® MS C18, 3.5 μm, 4.6×50 mm column (Waters Corporation, Milford, Mass.). […]

The subject of data set [3] is rat hindpaw incisional model. In words: Rat hindpaw incisional pain model, tactile allodynia. The data set is classed as in vivo. The note with it: for antiallodynic effect over time: tested 30, 60, 120, 240 minutes. The procedure: Protocol. A time course experiment was performed with beloxepin in the hindpaw incision model. […] Protocol. […] Protocol.
The conditions of data set [4]: single dose, 10 to 500 mg; cited from earlier work.
The target in the next data set is T2, 5HT2C receptor (Homo sapiens, UniProt P28335).
T2 sequence (P28335 33-458): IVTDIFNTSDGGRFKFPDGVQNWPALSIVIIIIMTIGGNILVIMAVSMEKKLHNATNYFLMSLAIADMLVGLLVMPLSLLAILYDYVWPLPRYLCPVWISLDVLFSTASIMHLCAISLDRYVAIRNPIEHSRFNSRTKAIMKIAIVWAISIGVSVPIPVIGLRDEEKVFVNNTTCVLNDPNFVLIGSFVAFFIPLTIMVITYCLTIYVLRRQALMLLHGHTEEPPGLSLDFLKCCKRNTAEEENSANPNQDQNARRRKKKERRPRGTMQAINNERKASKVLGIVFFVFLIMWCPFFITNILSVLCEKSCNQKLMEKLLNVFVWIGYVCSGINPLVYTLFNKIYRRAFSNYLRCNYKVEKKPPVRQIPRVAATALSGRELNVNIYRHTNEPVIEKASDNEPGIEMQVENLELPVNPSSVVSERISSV
Conditions: published report; cited from earlier work.

The test system of data set [5] is noradrenergic, histaminergic and cholinergic receptors. The note with it: published report; cited from earlier work.
Another data set concerns L5 SNL rats. In words: L5 SNL model of neuropathic pain, tactile allodynia (von Frey). Type of data set: in vivo, rat. The procedure: Protocol. […] Neurosci. Methods 144:175-181. The test animals were placed in a Plexiglas chamber (10 cm×20 cm×25 cm) and habituated for 15 minutes. The chamber was positioned on top of a mesh screen so that von Frey monofilaments could be presented to the plantar surface of both hindpaws. Measurement of tactile sensitivity for each hind paw were obtained using the up/down method (Dixon, 1980, Annu Rev. Pharmacol. […] Each trial started with a von Frey force of 2 grams delivered to the right hind paw for approximately 1-2 seconds and then the left hind paw. If there was no withdrawal response, the next higher force was delivered. If there was a response, the next lower force was delivered. This procedure was performed until no response was made at the highest force (15 grams) or until four stimuli were administered following the initial response. The 50% paw withdrawal threshold for each paw was calculated using the following formula: […] Testing for tactile sensitivity was performed twice and the mean 50% withdrawal value assigned as the tactile sensitivity for the right and left paws for each animal. All test groups contained at least six animals. Protocol. […] In the experiment, animals were tested for tactile allodynia at 30 min post treatment. The sham-operated control group, which were operated on but not subject to nerve ligation, contained 4 animals. The treatment group contained at least six animals. Protocol. […] All test groups contained at least six animals. Protocol. […] The data obtained are depicted in FIG. 11.

T1 sequence (P10635 whole entry): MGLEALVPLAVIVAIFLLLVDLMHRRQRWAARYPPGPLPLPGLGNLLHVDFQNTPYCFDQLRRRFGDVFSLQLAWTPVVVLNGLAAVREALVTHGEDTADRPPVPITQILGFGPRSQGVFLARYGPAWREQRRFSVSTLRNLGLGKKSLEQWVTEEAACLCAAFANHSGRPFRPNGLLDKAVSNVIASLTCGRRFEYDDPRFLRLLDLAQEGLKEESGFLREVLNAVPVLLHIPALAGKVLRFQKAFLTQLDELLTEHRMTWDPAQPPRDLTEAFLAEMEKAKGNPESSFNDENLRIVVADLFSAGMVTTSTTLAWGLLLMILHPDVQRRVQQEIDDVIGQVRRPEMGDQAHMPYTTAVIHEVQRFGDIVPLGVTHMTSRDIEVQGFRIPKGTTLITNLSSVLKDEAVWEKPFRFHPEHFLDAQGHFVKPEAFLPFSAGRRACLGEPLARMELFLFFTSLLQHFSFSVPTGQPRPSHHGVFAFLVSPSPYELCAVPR

As to `Cc1cccc2c1Oc1ccccc1C1(O)CCN(C)CC21` (racemic) [beloxepin, cis-1,2,3,4,4a,13b-hexahydro-2,10-dimethyldiben-[2,3:6,7]oxepino[4,5c]pyridine-4a-ol]], the “affinity for other monoamine carriers (serotonin and dopamine transporters) less than for noradrenaline reuptake” value in the data set with noradrenaline reuptake is on record as “greater than 100 fold”. For the same compound, in the data set on Male Sprague-Dawley rats, the “anti-nociceptive activity (paw lick latency)” value is “nearly as effective as 3 mg/kg morphine; also recorded: almost equivalent to that of 3 mg/kg morphine”. The “t1/2, steady state” value in [1] (healthy normal subjects, 50 to 800 mg) is 12 to 14 h. The “adverse effects in healthy volunteers” value in data set [1] (up to 800 mg/day) is listed as “No important adverse effects were observed”. Besides, the “total duration of nocturnal REM sleep” value in the data set with human volunteers (EEG) is given as “decreased total duration of nocturnal REM sleep”. Further, the REM latency result with human volunteers (acutely and sub-chronically, EEG) is reported as “dose-dependently prolonged REM latency”. The “sedation or other side effects in sleep studies” value with human volunteers (human volunteers) was “No sedation or other side effects were observed”. Moreover, the “fraction of patients with a moderate to good response (HAMD score reduction)” value in data set [2] is “⅔”. Besides, the pIC50 – broadly, −log10 of the IC50, conventionally taken in molar units – against CYP2D6 was 4.50. The “maximum hindpaw withdrawal threshold” value in [3] (3 mg/kg IV, 24 hours post-surgery, 30 minute time point (FIG. 14)) is listed as approximately 21 grams; in data set [3] (30 mg/kg IP, 24 hours post surgery, 30 minute time point (FIG. 12)) it was approximately 29 grams; in data set [3] (60 mg/kg PO, 24 hours post-surgery, 30 and 60 minute time points (FIG. 13)) it was approximately 24 grams. For the same compound, the “antiallodynic effect over time” value is “significant antiallodynic effect at the 30 and 120 minute time points” in data set [3] (3 mg/kg IV); “significant antiallodynic effect at all four time points” in [3] (30 mg/kg IP); “significant antiallodynic effect at all four time points” in data set [3] (60 mg/kg PO). In addition, the “maximum threshold, % of the threshold value for vehicle treated rats” value in [3] (30 mg/kg IP, 30 minute time point (FIG. 12)) is 544%. For the same compound, in data set [3] (IV, rats), the “3 mg/kg IV dose lower than a dose that produced a significant respiratory or cardiovascular side effect” value is recorded as 10 fold. Also, in [4], the t1/2 is 11 to 15 h. Also, the tmax entry in data set [4] is reported as “one to four”. In addition, the “affinity for the 5HT2C receptor” value on 5HT2C receptor is “modest affinity”. Besides, the “affinity for noradrenergic, histaminergic and cholinergic receptors” value in data set [5] was “no or very weak affinity”. The “side effects following treatment” value in the data set with L5 SNL rats (30 mg/kg IP, L5 SNL rats) is reported as “No side effects were observed”. Besides, the “antiallodynic efficacy compared with duloxetine” value in the data set with L5 SNL rats (each 30 mg/kg IP (FIG. 11)) is “comparable in efficacy to duloxetine”. In addition, the “peak antiallodynic effect compared with esreboxetine” value in the data set with L5 SNL rats (each 30 mg/kg IP (FIG. 11)) is “greater than that measured in rats treated with esreboxetine”.
